Data as given in US20030069194A1, “Inhibition of viral replication by targeting RNA-DNA complexes” (priority 2001, published 2003).
Where “and” joins values, the source holds several entries; their conditions need not be identical. Equal entries are not always repeated. Structures can show the parent of a compound that is named as a salt.

How the values were obtained:
18C-18R duplex = assay: UV melting (thermal denaturation) and ΔTm analysis, 18C-18R duplex; type: binding, HIV-1; details: for Ka (ΔTm-derived association constant): extrapolated to 25° C.; for greater affinity for the 18C-18R duplex than for the 18C-18D duplex: 18C-18R versus 18C-18D; for enhancement of thermal stability of the duplex (ΔTm): 18C-18R, drug to duplex ratio (rdup) 3.0, FIG. 3a
Procedure: All UV absorbance experiments were conducted on an AVIV Model 14DS Spectrophotometer (Aviv Associates; Lakewood, N.J.) equipped with a thermoelectrically controlled cell holder. A quartz cell with a 1 cm pathlength was used for all the absorbance studies. Absorbance versus temperature profiles were measured at 274 nm with a 6 sec averaging time. The temperature was raised in 0.5° C. increments, and the samples were allowed to equilibrate for 1 min at each temperature setting. In these thermal denaturation studies, 18C-18R and 18C-18D solutions were […] in duplex and contained aminoglycoside at concentrations ranging from 0 to 12 μM. The duplex solutions were preheated for 5 min at 85° C. and then cooled to room temperature prior to addition of the drug. The buffer solutions for the UV melting experiments contained 10 mM PIPES (pH 6.0) and 5 mM MgCl2. For each optically detected transition, the melting temperature (Tm) was determined. Marky, L. A. & Breslauer, K. J. Calculating thermodynamic data for transitions of any molecularity from equilibrium melting curves, Biopolymers 26, 1601-1620 (1987).
The ΔTm method described below was used to derive aminoglycoside-duplex association constants (Ka). Measured aminoglycoside-induced changes in the thermal stability of the host duplexes (FIG. 3) were used to estimate the apparent drug-duplex association constants at Tm (KTm) from the following expression (Crothers, D. M. Statistical thermodynamics of nucleic acid melting transitions with coupled binding equilibria, Biopolymers 10, 2147-2160 (1971)): [formula]
In this expression, TmO and Tm are the melting temperatures of the drug-free and drug-bound duplex, respectively, n is the number of drug molecules bound per duplex, ΔHdup is the enthalpy change for the melting of the duplex in the absence of bound drug, and L is the free drug concentration at Tm (which can be estimated by one half the total drug concentration). Values of ΔHdup for the 18C-18R and 18C-18D duplexes were determined from the shapes of their UV melting profiles using the following relationship (Marky, L. A. & Breslauer, K. J. Calculating thermodynamic data for transitions of any molecularity from equilibrium melting curves, Biopolymers 26, 1601-1620 (1987)): [formula]
where α is the fraction of single strand. This calculation yielded ΔHdup values of 157.8 kcal/mol for the 18C-18R duplex and 130.3 kcal/mol for the 18C-18D duplex. For meaningful comparisons, the calculated apparent binding constants at Tm should be extrapolated to a common reference temperature using the standard relationship: [formula]
where ΔHb is the enthalpy of drug binding.

HIV-1 = details: chronically infected cells; Zapp et al., Cell 74 (1993); cited from earlier work

| Molecule | Ka (ΔTm-derived association constant) (18C-18R duplex; 18C-18R duplex) | greater affinity for the 18C-18R duplex than for the 18C-18D duplex (18C-18R duplex) | enhancement of thermal stability of the duplex (ΔTm) (18C-18R duplex) | inhibition of HIV-1 production (HIV-1) | difference in affinity, neomycin greater than paromomycin (18C-18R duplex; 18C-18R duplex) | greater affinity for the 18C-18R duplex than for the 18C-18D duplex (18C-18R duplex; trisulfate trihydrate) |
| --- | --- | --- | --- | --- | --- | --- |
| NC[C@@H]1O[C@H](O[C@H]2[C@@H](O)[C@H](O[C@@H]3[C@@H](O)[C@H](N)C[C@H](N)[C@H]3O[C@H]3O[C@H](CO)[C@@H](O)[C@H](O)[C@H]3N)O[C@@H]2CO)[C@H](N)[C@@H](O)[C@@H]1O [paromomycin, paromomycin sulfate] | (4.3 ± 1.6) × 10^5 M^−1 | 2 fold | 1.4 °C | – | – | – |
| Neomycin trisulfate trihydrate | (8.6 ± 1.5) × 10^6 M^−1 | – | 4.8 °C | inhibit HIV-1 production in chronically infected cells | 20 fold | ≈ 5 fold and 5 fold |
